# According to US7504400B2, “MTP inhibiting aryl piperydines or piperazines substituted with 5-membered heterocycles” (Janssen Pharmaceutica N.V., priority 2004, dated 2009):
# Test system: Secretion of ApoB
# Assay: Quantification of the secretion of ApoB in HepG2 cells
# Type: cell-based
# Settings: Homo sapiens, HepG2, 24 h, 24 hours of incubation with test compound, immunoprecipitation of apoB from medium, read-out: pIC50 value (=-log IC50 value), secretion of ApoB (converted)
# Procedure: HepG2 cells were cultured in 24-well plates in MEM Rega 3 containing 10% fetal calf serum. At 70% confluency, the medium was changed and the test compound or carrier (DMSO, 0.4% final concentration) was added. After 24 hours of incubation, the medium was transferred to Eppendorf tubes and cleared by centrifugation. A sheep antibody directed against either apoB was added to the supernatant and the mixture was kept at 8° C. for 24 hours. Then, rabbit anti-sheep antibody was added and the immune complex was allowed to precipitate for 24 hours at 8° C. The immunoprecipitate was pelleted by centrifugation for 25 minutes at 1320 g and washed twice with a buffer containing 40 mM Mops, 40 mM NaH2PO4, 100 mM NaF, 0.2 mM DTT, 5 mM EDTA, 5 mM EGTA, 1% Triton-X-100, 0.5% sodium deoxycholate (DOC), 0.1% SDS, 0.2 μM leupeptin and 0.2 μM PMSF. Radioactivity in the pellet was quantified by liquid scintillation-counting. The IC50 values are usually converted to pIC50 values (=−log IC50 value) for ease of use.
row,IC50,Structure (SMILES)
1,316 to 3160 nM,CCOC(=O)[C@H](CC(C)C)NC(=O)CC1CCN(c2ccc(-n3cnn(C(C)c4ccccc4)c3=O)cc2)CC1 (stereo partly shown) [Compound 398]
2,< 31.6 nM,Cc1cc(N2CCN(C(C(=O)Nc3ccc4c(c3)CCC4)c3ccccc3)CC2)ccc1-n1ccn(C(C)C)c1=O (stereo not shown) [Compound 214]
3,316 to 3160 nM,COC(=O)c1cccc(CNC(=O)C(c2ccccc2)N2CCN(c3ccc(-n4ccn(C(C)C)c4=O)c(C)c3)CC2)c1 (stereo not shown) [Compound 290]
4,316 to 3160 nM,CCn1ncn(-c2ccc(N3CCC(C(C(=O)Nc4ccccc4)c4ccccc4)CC3)cc2)c1=O (stereo not shown) [Compound 53]
5,31.6 to 316 nM,CC(C)n1ncn(-c2ccc(N3CCN(C(C(=O)Nc4ccccc4)c4ccccc4)CC3)cc2)c1=O (stereo not shown) [Compound 8]
6,31.6 to 316 nM,C=CCn1ncn(-c2ccc(N3CCC(C(C(=O)NCc4ccccc4)c4ccccc4)CC3)cc2)c1=O (stereo not shown) [Compound 180]
7,31.6 to 316 nM,CNC(=O)C(CN1CCN(c2ccc(-n3cnn(C(C)C)c3=O)cc2)CC1)c1ccccc1 (stereo not shown) [Compound 100]
8,316 to 3160 nM,CCOC(=O)[C@@H](c1ccccc1)N1CCN(c2ccc(-n3cnn([C@H](C)c4ccccc4)c3=O)cc2)CC1 (stereo in doubt) [Compound 280]
9,316 to 3160 nM,Cc1nn(C(C)C)c(=O)n1-c1ccc(N2CCN(C(C(=O)NCc3ccccc3)c3ccccc3)CC2)cc1 (stereo not shown) [Compound 86]
10,31.6 to 316 nM,CCOC(=O)c1ccccc1NC(=O)C(c1ccccc1)N1CCN(c2ccc(-n3cnn(C(C)C)c3=O)cc2)CC1 (stereo not shown) [Compound 206]
11,< 31.6 nM,O=C(Nc1ccc2c(c1)CCC2)C(c1ccccc1)C1CCN(c2ccc(-n3nc4ccccn4c3=O)cc2)CC1 (stereo not shown) [Compound 211]
12,< 31.6 nM,COC(=O)c1cc(NC(=O)C(c2ccccc2)N2CCN(c3ccc(-n4cnn(C(C)c5ccccc5)c4=O)cc3)CC2)ccc1C (stereo not shown) [Compound 283]
13,316 to 3160 nM,C=CCn1ncn(-c2ccc(N3CCC(C(C(=O)NCCC)c4ccccc4)CC3)cc2)c1=O (stereo not shown) [Compound 152]
14,316 to 3160 nM,CCOC(=O)C(c1ccccc1)C1CCN(c2ccc(-n3ccn([C@@H](C)c4ccc(C)cc4)c3=O)cc2)CC1 (stereo partly shown) [Compound 254]
15,316 to 3160 nM,CCCNC(=O)C(c1ccccc1)(c1ccccc1)N1CCN(c2ccc(-n3cnn(C(C)C)c3=O)cc2)CC1 [Compound 134]
16,31.6 to 316 nM,CC(C)n1ncn(-c2ccc(N3CCN(C(C(=O)Nc4ccc5c(c4)OCCO5)c4ccccc4)CC3)cc2)c1=O (stereo not shown) [Compound 63]
17,316 to 3160 nM,CCOC(=O)C(c1ccccc1)N1CCC(c2ccc(-n3ccn([C@@H](C)c4cccc5ccccc45)c3=O)cc2)CC1 (stereo partly shown) [Compound 226]
18,31.6 to 316 nM,Cc1cc(C)cc(NC(=O)C(c2ccccc2)N2CCN(c3ccc(-n4cnn(C(C)C)c4=O)cc3)CC2)c1 (stereo not shown) [Compound 60]
19,316 to 3160 nM,CC(C)n1cnn(-c2ccc(N3CCN(C(C(=O)Nc4ccccc4)c4ccccc4)CC3)cc2)c1=O (stereo not shown) [Compound 5]
20,316 to 3160 nM,CCNC(=O)C(CCN1CCN(c2ccc(-n3cnn(C(C)C)c3=O)cc2)CC1)c1ccccc1 (stereo not shown) [Compound 161]
21,31.6 to 316 nM,CC(C)Cn1ncn(-c2ccc(N3CCC(C(C(=O)NCc4ccccc4)c4ccccc4)CC3)cc2)c1=O (stereo not shown) [Compound 181]
22,31.6 to 316 nM,CC(C)n1ncn(-c2ccc(N3CCN(CC(C(=O)N(C)C)c4ccccc4)CC3)cc2)c1=O (stereo not shown) [Compound 6]

row,IC50,Structure (SMILES)
1,316 to 3160 nM,CCOC(=O)C(c1ccccc1)N1CCC(c2ccc(-n3ccn([C@@H](C)C4CCCCC4)c3=O)cc2)CC1 (stereo partly shown) [Compound 241]
2,31.6 to 316 nM,CC(C)n1ncn(-c2ccc(C3CCN(C(C(=O)Nc4ccccc4)c4ccccc4)CC3)cc2)c1=O (stereo not shown) [Compound 19]
3,316 to 3160 nM,CC(C)NC(=O)C(c1ccccc1)(c1ccccc1)N1CCN(c2ccc(-n3cnn(C(C)C)c3=O)cc2)CC1 [Compound 135]
4,31.6 to 316 nM,CCOC(=O)C(c1ccccc1)N1CCN(c2ccc(-n3ccn([C@H](C)c4ccccc4)c3=O)c(C)c2)CC1 (stereo partly shown) [Compound 297]
5,31.6 to 316 nM,CC(C)n1ncn(-c2ccc(N3CCN(C(C(=O)Nc4ccc5c(c4)CCC5)c4ccccc4)CC3)c(F)c2)c1=O (stereo not shown) [Compound 216]
6,31.6 to 316 nM,CCOC(=O)C(c1ccccc1)C1CCN(c2ccc(-n3ccn([C@H](C)c4ccc(Cl)cc4)c3=O)cc2)CC1 (stereo partly shown) [Compound 255]
7,31.6 to 316 nM,CC(C)n1ncn(-c2ccc(N3CCN(C(C(=O)Nc4ccc(F)cc4)c4ccccc4)CC3)cc2)c1=O (stereo not shown) [Compound 186]
8,316 to 3160 nM,CCOC(=O)[C@@H](NC(=O)CC1CCN(c2ccc(-n3cnn(C(C)c4ccccc4)c3=O)cc2)CC1)c1ccccc1 (stereo partly shown) [Compound 395]
9,31.6 to 316 nM,CC(C)n1ncn(-c2ccc(C3CCN(C(C(=O)NCC(F)(F)F)c4ccccc4)CC3)cc2)c1=O (stereo not shown) [Compound 143]
10,31.6 to 316 nM,CC(C)NC(=O)C(CN1CCN(c2ccc(-n3cnn(C(C)C)c3=O)cc2)CC1)c1ccccc1 (stereo not shown) [Compound 74]
11,< 31.6 nM,CCOC(=O)[C@H](c1ccccc1)N1CCN(c2ccc(-n3ccn([C@H](C)c4ccccc4)c3=O)cc2)CC1 (relative stereo) [Compound 267]
12,31.6 to 316 nM,CC(C)n1ncn(-c2ccc(N3CCN(C(C(=O)NCc4cccc5ccccc45)c4ccccc4)CC3)cc2)c1=O (stereo not shown) [Compound 83]
13,316 to 3160 nM,CC(C)n1ncn(-c2ccc(N3CCN(CC(C(=O)Nc4ccccc4)c4ccccc4)CC3)cc2)c1=O (stereo not shown) [Compound 129]
14,31.6 to 316 nM,CC(C)n1ncn(-c2ccc(N3CCN(C(C(=O)Nc4ccc5c(c4)CCN(C(=O)OC(C)(C)C)C5)c4ccccc4)CC3)cc2)c1=O (stereo not shown) [Compound 305]
15,31.6 to 316 nM,CCNC(=O)C(c1ccccc1)N1CCN(c2ccc(-n3cnn(C(C)CC)c3=O)cc2)CC1 (stereo not shown) [Compound 175]
16,316 to 3160 nM,CC(C)n1ncn(-c2ccc(N3CCN(CCC(C(=O)NCc4ccccc4)c4ccccc4)CC3)cc2)c1=O (stereo not shown) [Compound 162]
17,31.6 to 316 nM,COC(=O)c1ccc(CNC(=O)C(c2ccccc2)N2CCC(c3ccc(-n4cnn(C(C)C)c4=O)cc3)CC2)cc1C (stereo not shown) [Compound 288]
18,316 to 3160 nM,CCOC(=O)C(c1ccccc1)C1CCN(c2ccc(-n3ccn([C@@H](C)c4ccc(Br)cc4)c3=O)cc2)CC1 (stereo partly shown) [Compound 250]
19,31.6 to 316 nM,C=CCNC(=O)C(CN1CCN(c2ccc(-n3cnn(C(C)C)c3=O)cc2)CC1)c1ccccc1 (stereo not shown) [Compound 103]
20,31.6 to 316 nM,CCCCn1ncn(-c2ccc(N3CCC(C(C(=O)NC(C)C)c4ccccc4)CC3)cc2)c1=O (stereo not shown) [Compound 88]
21,316 to 3160 nM,CC(C)n1ncn(-c2ccc(N3CCN(C(C(=O)Nc4cccnc4)c4ccccc4)CC3)cc2)c1=O (stereo not shown) [Compound 16]
22,316 to 3160 nM,Cc1nn(-c2ccc(N3CCN(C(C(=O)NCc4ccccc4)c4ccccc4)CC3)cc2)c(=O)n1C(C)C (stereo not shown) [Compound 40]

row,IC50,Structure (SMILES)
1,316 to 3160 nM,C=CCNC(=O)C(c1ccccc1)N1CCN(c2ccc(-n3cnn(C(C)C)c3=O)cn2)CC1 (stereo not shown) [Compound 49]
2,31.6 to 316 nM,Cc1cccc(NC(=O)C(c2ccccc2)N2CCN(c3ccc(-n4cnn(C(C)C)c4=O)cc3)CC2)c1 (stereo not shown) [Compound 57]
3,< 31.6 nM,CCC(C)n1nc(C)n(-c2ccc(N3CCC(C(C(=O)Nc4ccc5c(c4)CCC5)c4ccccc4)CC3)cc2)c1=O (stereo not shown) [Compound 207]
4,31.6 to 316 nM,CCC(C)n1ncn(-c2ccc(N3CCN(C(C(=O)OC)c4ccccc4)CC3)cc2)c1=O (stereo not shown) [Compound 174]
5,316 to 3160 nM,COC(=O)c1ccc(CNC(=O)C(c2ccccc2)N2CCN(c3ccc(-n4ccn(C(C)C)c4=O)c(C)c3)CC2)cc1 (stereo not shown) [Compound 293]
6,316 to 3160 nM,CCNC(=O)C(c1ccccc1)N1CCN(c2ccc(-n3nc(C)n(C(C)C)c3=O)cc2)CC1 (stereo not shown) [Compound 39]
7,31.6 to 316 nM,CC(C)n1ncn(-c2ccc(N3CCN(C(C(=O)NCc4ccccc4)c4ccccc4)CC3)nc2)c1=O (stereo not shown) [Compound 48]
8,31.6 to 316 nM,CCOC(=O)c1ccc(CNC(=O)C(c2ccccc2)C2CCN(c3ccc(-n4cnn(C(C)C)c4=O)cc3)CC2)cc1C (stereo not shown) [Compound 376]
9,316 to 3160 nM,CCCn1ncn(-c2ccc(N3CCC(C(C(=O)NC(C)C)c4ccccc4)CC3)cc2)c1=O (stereo not shown) [Compound 87]
10,316 to 3160 nM,CCCCCNC(=O)C(c1ccccc1)N1CCN(c2ccc(-n3ncn(C(C)C)c3=O)cc2)CC1 (stereo not shown) [Compound 120]
11,31.6 to 316 nM,CC(C)n1ncn(-c2ccc(N3CCN(C(C(=O)NC4Cc5ccccc5C4)c4ccccc4)CC3)cc2)c1=O (stereo not shown) [Compound 69]
12,316 to 3160 nM,CC(C)n1ncn(-c2ccc(N3CCN(C(C(=O)Nc4cccc5cccnc45)c4ccccc4)CC3)cc2)c1=O (stereo not shown) [Compound 15]
13,316 to 3160 nM,CCCNC(=O)C(c1ccccc1)C1CCN(c2ccc(-n3cnn(CC)c3=O)cc2)CC1 (stereo not shown) [Compound 148]
14,316 to 3160 nM,CCOC(=O)c1cc(NC(=O)CC2CCN(c3ccc(-n4cnn(C(C)C)c4=O)cc3)CC2)ccc1C [Compound 372]
15,316 to 3160 nM,CC(C)n1ncn(-c2ccc(N3CCN(C(C(=O)NCC(F)(F)F)c4ccccc4)CC3)cc2)c1=O (stereo not shown) [Compound 166]
16,316 to 3160 nM,COc1cc(CNC(=O)C(c2ccccc2)N2CCN(c3ccc(-n4cnn(C(C)C)c4=O)cc3)CC2)cc(OC)c1OC (stereo not shown) [Compound 78]
17,31.6 to 316 nM,CCOC(=O)C(c1ccccc1)C1CCN(c2ccc(-n3ccn([C@H](C)c4ccccc4)c3=O)cc2)CC1 (stereo partly shown) [Compound 247]
18,31.6 to 316 nM,CCCn1ncn(-c2ccc(N3CCN(C(C(=O)Nc4ccccc4)c4ccccc4)CC3)cc2)c1=O (stereo not shown) [Compound 124]
19,31.6 to 316 nM,CCOC(=O)C(c1ccccc1)N1CCC(c2ccc(-n3ccn([C@H](C)c4cccc(OC)c4)c3=O)cc2)CC1 (stereo partly shown) [Compound 237]
20,316 to 3160 nM,CCOC(=O)CC(NC(=O)C(c1ccccc1)N1CCC(c2ccc(-n3cnn(C(C)C)c3=O)cc2)CC1)c1ccc2c(c1)OCO2 (stereo not shown) [Compound 351]
